Series [1] in a line: Cytotoxicity, inhibition of cell growth. The format is cell-based. Conditions: human, read-out: CC50 (cytotoxic concentration that will kill half of the treated cells). As to the method:
FIGS. 10A and 10B. Inhibition of hepatocyte growth by HPN-01.
Huh7 cells and primary human hepatocytes were cultured in the presence of varying concentrations of HPN-01, and the inhibition of cell growth was measured.

The test system of series [2] is Huh7 cells. Nature of the series: Lipid droplet (LD) formation in Huh7 cells, BODIPY 493/503 staining, confocal microscopy. The format is cell-based. Conditions: Homo sapiens, Huh-7, 24 h. The method, then:
FIGS. 5A-5D. Effect of HPN-01 on hepatocellular lipid droplet (LD) biogenesis. Heptoma cell line Huh7 cells were treated with various amounts of HPN-01 for 24 hours, either in the absence or in the presence of 400 μM oleic acid, which triggers LD formation, after which intracellular LD contents were observed using a Zeiss confocal microscope with fluorescence. FIG. 5A) Fluorescent analysis of untreated (DMSO) or HPN-01-treated cells in the absence (Top panels) and presence (Bottom panels) of oleic acid. Cellular LD contents were stained using BODIPY 493/503 and are shown in green. Blue indicates cell nuclei. FIG. 5B) LD size of treated and untreated (DMSO) cells, in the presence or absence of oleic acid. FIG. 5C) Mean fluorescence intensity of untreated (DMSO) and treated cells in the absence of oleic acid. FIG. 5D) Mean fluorescence intensity of untreated (DMSO) and treated cells in the presence of oleic acid.
Heptoma cell line Huh7 cells were treated with various amounts of HPN-01 for 24 h, either in the absence or in the presence of 400 μM oleic acid, and observed under a Zeiss confocal microscope. […] LD contents (stained with BODIPY 493/503, in green) were observed under a Zeiss confocal microscope. FIG. 5A. Blue indicates cell nuclei. FIG. 5B. LD size. FIG. 5C. Mean fluorescence intensity. Values were measured using ZEN software by counting 300 cells under each treatment condition.

In a further series the test system is SREBP-2. Nature of the series: SREBP-2 expression in cultured primary human hepatocytes. Conditions: Hepatocyte. The format is cell-based. Put shortly: (§1)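 Primary human hepatocytes in culture exposed to a range of HPN-01 derivative concentrations; SREBP-1 and SREBP-2 mRNA expression then measured to assess inhibition.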
In another series the test system is nSTZ+HFD NASH mice. Nature of the series: Streptozotocin (STZ) and high fat diet-induced (nSTZ+HFD) NASH mice. The format is in vivo, C57/BL6J mice. Conditions: 5 or 15 mpk orally BID, 3 weeks. The method, then:
FIG. 27. Design of study to test in vivo HPN-01 efficacy on streptozotocin (STZ) and high fat diet-induced (nSTZ+HFD) NASH mice.
The effect of HPN-01 on various physical and biochemical parameters in mice induced to develop NASH was tested. Briefly, newborn C57/BL6J mice were divided into 5 groups, with 8 animals per group. […] The remaining four groups were injected on days 2, 3 and 4, with Vehicle (Vehicle consists of 40% PEG400:10% Cremophor EL:50% water) containing 90 μg of streptozotocin (STZ), and fed a high fat diet (HFD) from week 4 through week 9 to establish NASH hallmarks in the liver. One of the groups (Vehicle group) that received STZ was not given any further drug treatment. The remaining three groups received either orally administered Telmisartan or orally administered HPN-01 starting at week 6 and continuing for 3 weeks. Telmisartan was orally administered once per day (QD) at a dosage of 10 mpk (mg/kg weight); this group served as a positive control. HPN-01 was administrated orally twice a day (BID) with either a lower (5 mpk) or a higher (15 mpk) dose. For each group, body weight and food intake were recorded daily.
At the end of the study, animals were fasted overnight, and fasted blood glucose levels measured and compared with a fasted glucose level obtained on Day 1 of the study.
Mice were then euthanized, and whole blood drawn by cardiac puncture. Sera were prepared and stored at −80° C. for alanine aminotransferase (ALT), aspartate aminotransferase (AST), triglyceride (TG) and total cholesterol (TC) detection. Livers were isolated and liver weights were recorded. Liver tissues were stored at −80° C. for TG, TC detection, measurement of various inflammatory and fibrotic markers, and pathological studies.
Liver tissues from various groups from the study shown in FIG. 27 were observed under a microscope following Hematoxylin and Eosin (H&E) stain and Oil-red-O staining, and an NAFLD activity score determined. Additional NAFLD/NASH pathology scores were also determined, including a hepatic steatosis score (FIG. 35B), a ballooning score (FIG. 35C) and an inflammation score (FIG. 35D).

The subject of a further series is adiponectin. Nature of the series: Secreted adiponectin in differentiated 3T3-L1 cells by ELISA. The format is cell-based. Conditions: differentiated mouse 3T3-L1 cells. The method, then:
Differentiated, mouse 3T3-L1 cells were treated with varying concentrations of HPN-01, and the level of secreted adiponectin measured by ELISA.
(In an ELISA, binding on a coated surface is turned into a signal by an enzyme label.)

The next series has as its system SREBP-1. Briefly: SREBP-1 expression in cultured primary human hepatocytes. The format is cell-based. Conditions: Hepatocyte. Summed up: as §1
Series [3] has as its system Huh7 cells. Nature of the series: LD content in Huh7 cells pre-treated with insulin, Oil-Red-O staining, absorbance OD 540 nm. The format is cell-based. To be noted: Homo sapiens, Huh-7; Huh7 cells pre-treated with 1 mM insulin, 24 h; read-out: LD contents IC50 (Oil-Red-O, OD 540 nm). Summed up:
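Huh7 cells, mock-treated or pre-treated with 1 mM insulin, were then exposed to compound at the indicated amounts. Lipid droplets stained with Oil Red O and quantified by absorbance at OD 540 nm.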

The results in this text go back to patent US11000491B2, “Amino-aryl-benzamide compounds and methods of use thereof” (HEPANOVA, INC., priority 2017, dated 2021).

Like-named read-outs stand apart in the source and are kept apart here.

In general, IC50 refers to the point on the concentration scale where inhibition reaches its midpoint. `NC(=O)c1cc(-c2ccc(Cl)cc2)cc(-c2ccc(S(N)(=O)=O)cc2)c1N` [HPN-01, 2-amino-3-(p-sulfonamidophenyl)-5-(p-chlorophenyl) benzamide]: the CC50 in series [1] (Huh7 cells) was determined as 54300 nM. Moreover, in series [1] (primary human hepatocytes), the CC50 is 77200 nM. Also, the midpoint of inhibition with Huh7 cells [2] (with oleic acid stimulation (400 μM)), the IC50, lay at 270 nM. The IC50 in the series on Huh7 cells [2] (without oleic acid pre-treatment) turned out to be 460 nM. The midpoint of inhibition in the series with SREBP-2, the IC50, lay at 3430 nM. Besides, in the series on nSTZ+HFD NASH mice, the body weight result is on record as “no effect” and the daily food intake entry was “no effect”. Besides, the “fasted blood glucose levels” value with nSTZ+HFD NASH mice (Day-22 vs Day-1) is on record as “no effect”. In addition, in the series on nSTZ+HFD NASH mice (dose-dependent), the “elevation of hepatic TC” value is “significantly reversed”, the “elevation of hepatic TG” value was “significantly reversed”, the “elevation of serum ALT” value is reported as “significantly reversed” and the “elevation of serum AST” value is on record as “significantly reversed”. In addition, in the series with nSTZ+HFD NASH mice (dose-dependent), the “increase of serum total cholesterol (TC)” value is reported as “significantly abated”, the “increase of serum triglyceride (TG)” value is recorded as “significantly abated”, the “liver COL1A1 level” value was “reduced” and the “liver MCP-1 mRNA” value is “significantly suppressed”. Besides, in the series with nSTZ+HFD NASH mice (dose-dependent), the “liver TGF-β1 level” value was “reduced”, the “liver TIMP-1 level” value is given as “reduced” and the “liver TNF-α mRNA” value was “significantly suppressed”. For the same compound, 320 nM corresponded to half-maximal inhibition in the series on adiponectin (IC50). Further, the IC50 with SREBP-1 is 1710 nM. Further, in the series on Huh7 cells [3], the IC50 was found to be 250 nM.
